For one experiment, the system named is FADD−/− Jurkat cells. The experiment is described as follows: Necroptosis inhibition assay, TNF-α-induced necroptosis (CellTiter-Glo 2.0). It counts as cell-based, human. The conditions noted are these: TNF-α 15 ng/mL; for Necroptosis inhibition assay (Rescue %) 1 μM: compound 1 μM; for Necroptosis inhibition assay (Rescue %) 10 μM: compound 10 μM. The essentials: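 Compound is added to cells at final concentrations of 0.1, 1 and 10 μM and left 30 minutes at room temperature. Necroptosis is induced with 15 ng/mL TNF-α, culture continues 20 to 24 hours at 37° C, and ATP-based luminescence reports viability.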
On the technique in general: In ATP-based viability assays light output follows the ATP content of the culture.

Experiment [1] addresses T1, MLKL (Homo sapiens, UniProt Q8NB16).
T1 sequence (Q8NB16 1-471): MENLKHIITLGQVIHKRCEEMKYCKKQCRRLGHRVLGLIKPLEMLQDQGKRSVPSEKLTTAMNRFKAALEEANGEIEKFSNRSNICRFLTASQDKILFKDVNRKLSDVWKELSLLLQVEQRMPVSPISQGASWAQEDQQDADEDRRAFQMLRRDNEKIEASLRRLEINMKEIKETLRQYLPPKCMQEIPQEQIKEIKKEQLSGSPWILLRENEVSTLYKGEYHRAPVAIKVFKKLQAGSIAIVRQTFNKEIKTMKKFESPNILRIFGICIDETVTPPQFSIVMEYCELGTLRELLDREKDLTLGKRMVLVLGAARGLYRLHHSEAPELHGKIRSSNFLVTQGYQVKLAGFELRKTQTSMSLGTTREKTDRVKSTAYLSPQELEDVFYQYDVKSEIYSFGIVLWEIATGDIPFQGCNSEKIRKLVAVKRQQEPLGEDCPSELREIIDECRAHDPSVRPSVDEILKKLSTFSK
In words: MLKL degradation assay in HepG2 cell line (western blot). It counts as cell-based. The conditions noted are these: cell line not given; for Degradation assay (Degradation %) 1 μM: compound 1 μM; for Degradation assay (Degradation %) 10 μM: compound 10 μM. Set-up: endogenous in cells; host or cells: HepG2 or HaCaT. The essentials: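 Chemiluminescent western blot signal reports remaining MLKL protein in HepG2 cells after 20-24 h treatment with compound at a final 1 or 10 μM. Equal protein (10-15 μg, BCA) is loaded per lane.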
(In general: A western blot detects proteins with antibodies after separation by electrophoresis.)

Experiment [2] concerns the target T1, MLKL. The experiment is described as follows: Measurement of binding affinity with MLKL receptor (competitive binding assay, Kd). Also on record: made in house; host or cells: HEK 293 cell line (T7 phage in E. coli BL21-derived host is also described). A digest of the protocol: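 Kd from an immobilized-ligand competition format: the DNA-tagged kinase from HEK 293 expression is eluted and quantified by qPCR. Compounds added from 111× DMSO stocks, final DMSO 0.9%.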

The values below come from US20240252488A1 (KOREA RESEARCH INSTITUTE OF CHEMICAL TECHNOLOGY, priority 2020, published 2024).

What is called Kd is the concentration at which binding is half-saturated. For the compound `Nc1ncc(-c2cnn(C3CCN(CCOC4CCN(C(=O)COc5ccc6c(c5)C(=O)N(C5CCC(=O)NC5=O)C6=O)CC4)CC3)c2)nc1C(=O)OC(C(=O)Nc1ccc(F)cc1)c1ccccc1` (centres unmarked) [TDH-252, 2-((4-fluorophenyl)amino)-2-oxo-1-phenylethyl 3-amino-6-(1-(1-(2-((1-(2-((2-(2,6-dioxopiperidin-3-yl)-1,3-dioxoisoindolin-5-yl)oxy)acetyl)piperidin-4-yl)oxy)ethyl)piperidin-4-yl)-1H-pyrazol-4-yl)pyrazine-2-carboxylate], in the experiment on FADD−/− Jurkat cells, the “Necroptosis inhibition assay (Rescue %) 1 μM” value was 124.11% and the “Necroptosis inhibition assay (Rescue %) 10 μM” value is 73.38%. In addition, at MLKL [1], the “Degradation assay (Degradation %) 1 μM” value was found to be 76.56% and the “Degradation assay (Degradation %) 10 μM” value was determined as 84.2%. Also, the Kd at MLKL [2] is 3.9 nM.

For `Nc1ncc(-c2cn(C3CCN(CC4CCN(C(=O)CNc5cccc6c5C(=O)N(C5CCC(=O)NC5=O)C6=O)CC4)CC3)nn2)nc1C(=O)OC(C(=O)Nc1ccc(F)cc1)c1ccccc1` (centres unmarked) [TDH-224, 2-((4-fluorophenyl)amino)-2-oxo-1-phenylethyl 3-amino-6-(1-(1-((1-((2-(2,6-dioxopiperidin-3-yl)-1,3-dioxoisoindolin-4-yl)glycyl)piperidin-4-yl)methyl)piperidin-4-yl)-1H-1,2,3-triazol-4-yl)pyrazine-2-carboxylate], in the experiment on FADD−/− Jurkat cells, the “Necroptosis inhibition assay (Rescue %) 1 μM” value came to 63.63% and the “Necroptosis inhibition assay (Rescue %) 10 μM” value was 67.66%. At MLKL [1], the “Degradation assay (Degradation %) 1 μM” value was 49.26% and the “Degradation assay (Degradation %) 10 μM” value was 56.93%. On MLKL [2], this compound returned a Kd of 19 nM.

Consider `Nc1ncc(-c2cnn(C3CCN(CC4CN(c5cccc6c5C(=O)N(C5CCC(=O)NC5=O)C6=O)CCO4)CC3)c2)nc1C(=O)OC(C(=O)Nc1ccc(F)cc1)c1ccccc1` (centres unmarked) [TDH-310, 2-((4-fluorophenyl)amino)-2-oxo-1-phenylethyl 3-amino-6-(1-(1-((4-(2-(2,6-dioxopiperidin-3-yl)-1,3-dioxoisoindolin-4-yl)morpholin-2-yl)methyl)piperidin-4-yl)-1H-pyrazol-4-yl)pyrazine-2-carboxylate], for which, in the experiment on FADD−/− Jurkat cells, the “Necroptosis inhibition assay (Rescue %) 1 μM” value came out at 40.08% and the “Necroptosis inhibition assay (Rescue %) 10 μM” value is on record as 41.99%. On MLKL [1], the “Degradation assay (Degradation %) 1 μM” value is 35.97% and the “Degradation assay (Degradation %) 10 μM” value was found to be 27.19%. Besides, the affinity at MLKL [2], expressed as Kd, was 2.6 nM.

As for `Nc1ncc(-c2cnn([C@H]3CCN(CC4CCN(C(=O)CNc5cccc6c5C(=O)N(C5CCC(=O)NC5=O)C6=O)CC4)C3)c2)nc1C(=O)OC(C(=O)Nc1ccc(F)cc1)c1ccccc1` (stereo partly drawn) [TDH-281, 2-((4-fluorophenyl)amino)-2-oxo-1-phenylethyl 3-amino-6-(1-((3S)-1-((1-((2-(2,6-dioxopiperidin-3-yl)-1,3-dioxoisoindolin-4-yl)glycyl)piperidin-4-yl)methyl)pyrrolidin-3-yl)-1H-pyrazol-4-yl)pyrazine-2-carboxylate], in the experiment with FADD−/− Jurkat cells, the “Necroptosis inhibition assay (Rescue %) 1 μM” value turned out to be 29.65% and the “Necroptosis inhibition assay (Rescue %) 10 μM” value was found to be 26.95%. Also, on MLKL [1], the “Degradation assay (Degradation %) 1 μM” value is listed as 45.01% and the “Degradation assay (Degradation %) 10 μM” value stood at 10.1%. The compound also gave a Kd on MLKL [2] of 5.7 nM.

As to `Nc1ncc(-c2cnn(C3CCN(CCCN4CCN(C(=O)CCc5cccc6c5C(=O)N(C5CCC(=O)NC5=O)C6=O)CC4)CC3)c2)nc1C(=O)O[C@@H](C(=O)Nc1ccc(F)cc1)c1ccccc1` (stereo partly drawn) [TDH-382, (R)-2-((4-fluorophenyl)amino)-2-oxo-1-phenylethyl 3-amino-6-(1-(1-(3-(4-(3-(2-(2,6-dioxopiperidin-3-yl)-1,3-dioxoisoindolin-4-yl)propanoyl)piperazin-1-yl)propyl)piperidin-4-yl)-1H-pyrazol-4-yl)pyrazine-2-carboxylate], in the experiment on FADD−/− Jurkat cells, the “Necroptosis inhibition assay (Rescue %) 1 μM” value is on record as 59.24% and the “Necroptosis inhibition assay (Rescue %) 10 μM” value was determined as 22.12%. In addition, on MLKL [1], the “Degradation assay (Degradation %) 1 μM” value came to 81.82% and the “Degradation assay (Degradation %) 10 μM” value stood at 81.68%. For the same compound, the Kd at MLKL [2] is 0.42 nM.

For `Nc1ncc(-c2cnn(C3CCN(CC4CCN(CCC5CCN(C(=O)Cc6cccc(NC7=CC(=O)N(C8CCC(=O)NC8=O)C7=O)c6)CC5)CC4)CC3)c2)nc1C(=O)O[C@@H](C(=O)Nc1ccc(F)cc1)c1ccccc1` (stereo partly drawn) [TDH-507, (R)-2-((4-fluorophenyl)amino)-2-oxo-1-phenylethyl 3-amino-6-(1-(1-((1-(2-(1-(2-(3-((1-(2,6-dioxopiperidin-3-yl)-2,5-dioxo-2,5-dihydro-1H-pyrrol-3-yl)amino)phenyl)acetyl)piperidin-4-yl)ethyl)piperidin-4-yl)methyl)piperidin-4-yl)-1H-pyrazol-4-yl)pyrazine-2-carboxylate], in the experiment on FADD−/− Jurkat cells (FADD−/− Jurkat cells), the “Necroptosis inhibition assay (Rescue %) 1 μM” value came to 26.03% and the “Necroptosis inhibition assay (Rescue %) 10 μM” value stood at 14.19%. At MLKL [1], the “Degradation assay (Degradation %) 1 μM” value was 82.75% and the “Degradation assay (Degradation %) 10 μM” value was 86.37%. At MLKL [2], binding was put at a Kd of 1.1 nM.

For `Nc1ncc(-c2cnn(C3CCN(C(=O)CC4CCN(C(=O)CNc5cccc6c5C(=O)N(C5CCC(=O)NC5=O)C6=O)CC4)CC3)c2)nc1C(=O)O[C@@H](C(=O)Nc1ccc(F)cc1)c1ccccc1` (stereo partly drawn) [TDH-339, (R)-2-((4-fluorophenyl)amino)-2-oxo-1-phenylethyl 3-amino-6-(1-(1-(2-(1-((2-(2,6-dioxopiperidin-3-yl)-1,3-dioxoisoindolin-4-yl)glycyl)piperidin-4-yl)acetyl)piperidin-4-yl)-1H-pyrazol-4-yl)pyrazine-2-carboxylate], in the experiment with FADD−/− Jurkat cells, the “Necroptosis inhibition assay (Rescue %) 1 μM” value was 12.23% and the “Necroptosis inhibition assay (Rescue %) 10 μM” value is 12.31%. For the same compound, at MLKL [1], the “Degradation assay (Degradation %) 1 μM” value came out at 71.36% and the “Degradation assay (Degradation %) 10 μM” value is listed as 51.92%. For the same compound, the affinity at MLKL [2], expressed as Kd, was 13 nM.

As to `Nc1ncc(-c2cnn(C3CCN(CCOCCOCCNC(=O)CNc4ccc5c(c4)C(=O)N(C4CCC(=O)NC4=O)C5=O)CC3)c2)nc1C(=O)O[C@@H](C(=O)Nc1ccc(F)cc1)c1ccccc1` (stereo partly drawn) [TDH-103, (R)-2-((4-fluorophenyl)amino)-2-oxo-1-phenylethyl 3-amino-6-(1-(1-(2-(2-(2-(2-((2-(2,6-dioxopiperidin-3-yl)-1,3-dioxoisoindolin-5-yl)amino)acetamido)ethoxy)ethoxy)ethyl)piperidin-4-yl)-1H-pyrazol-4-yl)pyrazine-2-carboxylate], in the experiment with FADD−/− Jurkat cells, the “Necroptosis inhibition assay (Rescue %) 1 μM” value was found to be 34.93% and the “Necroptosis inhibition assay (Rescue %) 10 μM” value was found to be 59.65%. Further, on MLKL [1], the “Degradation assay (Degradation %) 1 μM” value came out at 5.5% and the “Degradation assay (Degradation %) 10 μM” value amounted to 52.04%. On MLKL [2], binding was put at a Kd of 1.4 nM.

Take `Nc1ncc(-c2cnn(C3CCN(CCOCCOCCOCCNC(=O)C4CCN(c5cccc6c5C(=O)N(C5CCC(=O)NC5=O)C6=O)CC4)CC3)c2)nc1C(=O)O[C@@H](C(=O)Nc1ccc(F)cc1)c1ccccc1` (stereo partly drawn) [TDH-139, (R)-2-((4-fluorophenyl)amino)-2-oxo-1-phenylethyl 3-amino-6-(1-(1-(1-(1-(2-(2,6-dioxopiperidin-3-yl)-1,3-dioxoisoindolin-4-yl)piperidin-4-yl)-1-oxo-5,8,11-trioxa-2-azatridecan-13-yl)piperidin-4-yl)-1H-pyrazol-4-yl)pyrazine-2-carboxylate]: in the experiment with FADD−/− Jurkat cells, the “Necroptosis inhibition assay (Rescue %) 1 μM” value was 18.11% and the “Necroptosis inhibition assay (Rescue %) 10 μM” value was 61.89%. Further, the “Degradation assay (Degradation %) 10 μM” value on MLKL [1] came out at 78.56%. Moreover, binding on MLKL [2] was put at a Kd of 4.9 nM.
